Measured values reported in the NIST ThermoML archive (doi:10.1016/j.fluid.2013.02.008).
Numbers after ± are expanded uncertainties.

Test: activity coefficient (dimensionless); of the first substance listed, at infinite dilution; xn = mol fraction of the nth substance listed
Conditions: Liquid, Chromatography, x1 = 0

`CCCCCC` [hexane] + CCCCCCCCCCCCCCO showed an activity coefficient (331.8 K, 101 kPa) of 1.69 ± 0.11 and an activity coefficient (353 K, 101 kPa) of 1.6 ± 0.11.
For `CCCCCCCCCC` [decane] + OCCCO, the activity coefficient (312.1 K, 101 kPa) was 793 ± 55, the activity coefficient (333.1 K, 101 kPa) was 589 ± 41 and the activity coefficient (352.1 K, 101 kPa) was 501 ± 34. For the same compound, the activity coefficient (372.1 K, 101 kPa) was 464 ± 32, the activity coefficient (391.1 K, 101 kPa) was 338 ± 23 and the activity coefficient (411.1 K, 101 kPa) was 256 ± 18.
`CCCCCC` [hexane] + CCCCCCCCCCO gave an activity coefficient (312.6 K, 101 kPa) of 2.21 ± 0.15, an activity coefficient (331.7 K, 101 kPa) of 2.14 ± 0.15 and an activity coefficient (352.9 K, 101 kPa) of 2.02 ± 0.14.
In the case of `CCCCCCCCCC` [decane] + CCCCCCCCCCO, the activity coefficient (352.8 K, 101 kPa) is reported as 2.98 ± 0.2, the activity coefficient (372.2 K, 101 kPa) is reported as 2.73 ± 0.19 and the activity coefficient (391.6 K, 101 kPa) is reported as 2.6 ± 0.18.
Work on `CCCCCC` [hexane] + OCCCO yielded an activity coefficient (312.1 K, 101 kPa) of 77.2 ± 5.3, an activity coefficient (333.1 K, 101 kPa) of 72.9 ± 5 and an activity coefficient (352.1 K, 101 kPa) of 52.4 ± 3.6.
Work on `CCCCCCCC` [octane] + CCCCCCCCCCCCCCO yielded an activity coefficient (353 K, 101 kPa) of 1.87 ± 0.08, an activity coefficient (372.4 K, 101 kPa) of 1.76 ± 0.07 and an activity coefficient (391.9 K, 101 kPa) of 1.69 ± 0.07. For the same compound, the activity coefficient (410.6 K, 101 kPa) was 1.63 ± 0.07 and the activity coefficient (430.6 K, 101 kPa) was 1.61 ± 0.06.
With `CCCCCCCC` [octane] + CCCCCCCCCCO the activity coefficient (352.7 K, 101 kPa) was 2.44 ± 0.17, the activity coefficient (372.2 K, 101 kPa) was 2.28 ± 0.16 and the activity coefficient (391.8 K, 101 kPa) was 2.15 ± 0.15.
Compound `CCCCCC` [hexane] + OCCO has an activity coefficient (313.2 K, 101 kPa) of 97.8 ± 6.7, an activity coefficient (332.1 K, 101 kPa) of 88.1 ± 6 and an activity coefficient (353.5 K, 101 kPa) of 80.6 ± 5.5.
Compound `CCCCCC` [hexane] + CCCCCCCCCCCCO has an activity coefficient (312.7 K, 101 kPa) of 2.03 ± 0.14, an activity coefficient (332.1 K, 101 kPa) of 1.98 ± 0.13 and an activity coefficient (353.2 K, 101 kPa) of 1.86 ± 0.13.
Compound `CCCCCCCC` [octane] + OCCO has an activity coefficient (332.1 K) of 631 ± 43, an activity coefficient (353.6 K) of 447 ± 31 and an activity coefficient (372.7 K) of 383 ± 26. For the same compound, the activity coefficient (392.4 K) was 313 ± 22.
`CCCCCCCCCC` [decane] + CCCCCCCCCCCCCCO showed an activity coefficient (353 K, 101 kPa) of 2.1 ± 0.14, an activity coefficient (372.4 K, 101 kPa) of 1.9 ± 0.13 and an activity coefficient (392 K, 101 kPa) of 1.79 ± 0.12. It also gave an activity coefficient (430.3 K, 101 kPa) of 1.68 ± 0.11.
Work on `CCCCCCCCCC` [decane] + OCCO yielded an activity coefficient (359.5 K, 101 kPa) of 1680 ± 120, an activity coefficient (373.1 K, 101 kPa) of 1210 ± 84 and an activity coefficient (392.4 K, 101 kPa) of 804 ± 55. The activity coefficient (411.5 K, 101 kPa) was 557 ± 38 and the activity coefficient (431 K, 101 kPa) was 454 ± 31.
`CCCCCCCC` [octane] + CCCCCCCCCCCCO showed an activity coefficient (353.3 K, 101 kPa) of 2.29 ± 0.16, an activity coefficient (362.6 K, 101 kPa) of 2.21 ± 0.15 and an activity coefficient (372.4 K, 101 kPa) of 2.16 ± 0.15. It also gave an activity coefficient (383 K, 101 kPa) of 2.08 ± 0.14, an activity coefficient (411.1 K, 101 kPa) of 1.9 ± 0.13 and an activity coefficient (430.6 K, 101 kPa) of 1.76 ± 0.12.
With `CCCCCCCC` [octane] + OCCCO the activity coefficient (312.1 K, 101 kPa) was 314 ± 22, the activity coefficient (333.1 K, 101 kPa) was 283 ± 19 and the activity coefficient (352.1 K, 101 kPa) was 224 ± 15. It also gave an activity coefficient (372.1 K, 101 kPa) of 187 ± 13 and an activity coefficient (391.1 K, 101 kPa) of 148 ± 10.
Compound `CCCCCCCCCC` [decane] + CCCCCCCCCCCCO has an activity coefficient (352.7 K, 101 kPa) of 3.46 ± 0.24, an activity coefficient (362.5 K, 101 kPa) of 2.93 ± 0.2 and an activity coefficient (372.8 K, 101 kPa) of 2.67 ± 0.18. For the same compound, the activity coefficient (382.9 K, 101 kPa) was 2.42 ± 0.16, the activity coefficient (392 K, 101 kPa) was 2.31 ± 0.16 and the activity coefficient (410.9 K, 101 kPa) was 2.31 ± 0.16. It also gave an activity coefficient (430.6 K, 101 kPa) of 2.18 ± 0.15.
